Experimental data from patent US20260262643A1, “HERBICIDAL BENZOXAZINES” (FMC CORPORATION, priority 2022, published 2026).

Tests used:
barnyardgrass [1] = assay: Test D flooded paddy test; assay type: in vivo, Echinochloa crus-galli; conditions: 250 g ai/ha, applied to paddy water, visual rating after 13 to 14 days, scale 0 to 100 (0 no effect, 100 complete control)
Outline: (§1)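 Visual ratings from 0, meaning no effect, to 100, meaning complete control, were assigned against untreated controls 13 to 14 days after compounds were added to the floodwater of pots kept 3 cm deep, with plants at the 2-leaf stage.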

wheat [2] = assay: Test C preemergence; assay type: in vivo, Triticum aestivum; conditions: preemergence, 0 to 100 scale (0 no effect, 100 complete control)
Outline: (§2)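 Seeds sown in loam soil–sand blend received a directed preemergence soil spray of test chemical in non-phytotoxic solvent with surfactant; postemergence plants (2–10 cm, one- to two-leaf stage) were sprayed with the same formulation. Greenhouse-held 10 days, then visually rated for injury versus untreated controls, 0 (no effect) to 100 (complete control).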

galium = assay: Test C postemergence; assay type: in vivo, Galium aparine; conditions: postemergence, 10 days
Outline: as §2

oat, wild [3] = assay: Test C postemergence; assay type: in vivo, Avena fatua; conditions: postemergence, 10 days
Outline: as §2

pigweed, palmer [4] = assay: Test C postemergence; assay type: in vivo, Amaranthus palmeri; conditions: postemergence, 10 days
Outline: as §2

kochia [5] = assay: Test C postemergence; assay type: in vivo, Bassia scoparia; conditions: postemergence, 10 days
Outline: as §2

green foxtail [6] = assay: Test C postemergence; assay type: in vivo, Setaria viridis; conditions: postemergence, 10 days
Outline: as §2

soybean [7] = assay: Test C postemergence; assay type: in vivo, Glycine max; conditions: postemergence, 10 days
Outline: as §2

ragweed [8] = assay: Test C postemergence; assay type: in vivo, Ambrosia artemisiifolia; conditions: postemergence, 10 days
Outline: as §2

ryegrass, Italian [9] = assay: Test C preemergence; assay type: in vivo, Lolium multiflorum; conditions: preemergence, 0 to 100 scale (0 no effect, 100 complete control)
Outline: as §2

soybean [10] = assay: Test C preemergence; assay type: in vivo, Glycine max; conditions: preemergence, 0 to 100 scale (0 no effect, 100 complete control)
Outline: as §2

green foxtail [11] = assay: Test C preemergence; assay type: in vivo, Setaria viridis; conditions: preemergence, 0 to 100 scale (0 no effect, 100 complete control)
Outline: as §2

pigweed, palmer [12] = assay: Test C preemergence; assay type: in vivo, Amaranthus palmeri; conditions: preemergence, 0 to 100 scale (0 no effect, 100 complete control)
Outline: as §2

ragweed [13] = assay: Test C preemergence; assay type: in vivo, Ambrosia artemisiifolia; conditions: preemergence, 0 to 100 scale (0 no effect, 100 complete control)
Outline: as §2

rice = assay: Test D flooded paddy test; assay type: in vivo, Oryza sativa; conditions: 250 g ai/ha, applied to paddy water, visual rating after 13 to 14 days, scale 0 to 100 (0 no effect, 100 complete control)
Outline: as §1

ducksalad = assay: Test D flooded paddy test; assay type: in vivo, Heteranthera limosa; conditions: 250 g ai/ha, applied to paddy water, visual rating after 13 to 14 days, scale 0 to 100 (0 no effect, 100 complete control)
Outline: as §1

corn [14] = assay: Test C postemergence; assay type: in vivo, Zea mays; conditions: postemergence, 10 days
Outline: as §2

horseweed = assay: Test C postemergence; assay type: in vivo, Erigeron canadensis; conditions: postemergence, 10 days
Outline: as §2

kochia [15] = assay: Test C preemergence; assay type: in vivo, Bassia scoparia; conditions: preemergence, 0 to 100 scale (0 no effect, 100 complete control)
Outline: as §2

wheat [16] = assay: Test C postemergence; assay type: in vivo, Triticum aestivum; conditions: postemergence, 10 days
Outline: as §2

sedge, umbrella = assay: Test D flooded paddy test; assay type: in vivo, Cyperus difformis; conditions: 250 g ai/ha, applied to paddy water, visual rating after 13 to 14 days, scale 0 to 100 (0 no effect, 100 complete control)
Outline: as §1

corn [17] = assay: Test C preemergence; assay type: in vivo, Zea mays; conditions: preemergence, 0 to 100 scale (0 no effect, 100 complete control)
Outline: as §2

blackgrass [18] = assay: Test C preemergence; assay type: in vivo, Alopecurus myosuroides; conditions: preemergence, 0 to 100 scale (0 no effect, 100 complete control)
Outline: as §2

barnyardgrass [19] = assay: Test C postemergence; assay type: in vivo, Echinochloa crusgalli; conditions: postemergence, 10 days
Outline: as §2

oat, wild [20] = assay: Test C preemergence; assay type: in vivo, Avena fatua; conditions: preemergence, 0 to 100 scale (0 no effect, 100 complete control)
Outline: as §2

ryegrass, Italian [21] = assay: Test C postemergence; assay type: in vivo, Lolium multiflorum; conditions: postemergence, 10 days
Outline: as §2

barnyardgrass [22] = assay: Test C preemergence; assay type: in vivo, Echinochloa crusgalli; conditions: preemergence, 0 to 100 scale (0 no effect, 100 complete control)
Outline: as §2

blackgrass [23] = assay: Test C postemergence; assay type: in vivo, Alopecurus myosuroides; conditions: postemergence, 10 days
Outline: as §2

[24] = 125 g ai/ha, 0 to 100 scale, 0 no effect, 100 complete control
[25] = 500 g ai/ha, 0 to 100 scale (0 no effect, 100 complete control)

Structure (SMILES): CCc1ncn(-c2ccc(C)c(C(=O)N3CC(C(F)(F)F)Oc4c(Cl)cccc43)c2)n1 (racemic) [Compound 290]
- Plant response rating, Barnyardgrass (Flood) (barnyardgrass [1]): 10
- Wheat plant response rating (wheat [2]; 500 g ai/ha): 50
- Wheat plant response rating (wheat [2]; Test C, 125 g ai/ha): 30
- Plant response rating, Galium (galium; [24]): 100
- Plant response rating, Galium (galium; [25]): 100
- Plant response rating, Oat, Wild (oat, wild [3]; [24]): 10
- Plant response rating, Oat, Wild (oat, wild [3]; [25]): 90
- Plant response rating, Pigweed, Palmer (pigweed, palmer [4]; [24]): 100
- Plant response rating, Pigweed, Palmer (pigweed, palmer [4]; [25]): 100
- Plant response rating, Kochia (kochia [5]; [24]): 80
- Plant response rating, Kochia (kochia [5]; [25]): 90
- Plant response rating, Foxtail, Green (green foxtail [6]; [24]): 80
- Plant response rating, Foxtail, Green (green foxtail [6]; [25]): 90
- Plant response rating, Soybean (soybean [7]; [24]): 100
- Plant response rating, Soybean (soybean [7]; [25]): 100
- Plant response rating, Ragweed (ragweed [8]; [24]): 70
- Plant response rating, Ragweed (ragweed [8]; [25]): 80
- Ryegrass, Italian plant response rating (ryegrass, Italian [9]; 500 g ai/ha): 100
- Ryegrass, Italian plant response rating (ryegrass, Italian [9]; Test C, 125 g ai/ha): 90
- Soybean plant response rating (soybean [10]; 500 g ai/ha): 80
- Soybean plant response rating (soybean [10]; Test C, 125 g ai/ha): 90
- Foxtail, Green plant response rating (green foxtail [11]; 500 g ai/ha): 100
- Foxtail, Green plant response rating (green foxtail [11]; Test C, 125 g ai/ha): 100
- Pigweed, Palmer plant response rating (pigweed, palmer [12]; 500 g ai/ha): 100
- Pigweed, Palmer plant response rating (pigweed, palmer [12]; Test C, 125 g ai/ha): 100
- Ragweed plant response rating (ragweed [13]; 500 g ai/ha): 70
- Ragweed plant response rating (ragweed [13]; Test C, 125 g ai/ha): 60
- Plant response rating, Rice (Flood) (rice): 10
- Plant response rating, Ducksalad (Flood) (ducksalad): 50
- Plant response rating, Corn (corn [14]; [24]): 30
- Plant response rating, Corn (corn [14]; [25]): 30
- Plant response rating, Horseweed (horseweed; [24]): 40
- Plant response rating, Horseweed (horseweed; [25]): 40
- Kochia plant response rating (kochia [15]; 500 g ai/ha): 90
- Kochia plant response rating (kochia [15]; Test C, 125 g ai/ha): 90
- Plant response rating, Wheat (wheat [16]; [24]): 30
- Plant response rating, Wheat (wheat [16]; [25]): 60
- Plant response rating, Sedge, Umbrella (Flood) (sedge, umbrella): 85
- Corn plant response rating (corn [17]; 500 g ai/ha): 40
- Corn plant response rating (corn [17]; Test C, 125 g ai/ha): 30
- Blackgrass plant response rating (blackgrass [18]; 500 g ai/ha): 70
- Blackgrass plant response rating (blackgrass [18]; Test C, 125 g ai/ha): 70
- Plant response rating, Barnyardgrass (barnyardgrass [19]; [24]): 50
- Plant response rating, Barnyardgrass (barnyardgrass [19]; [25]): 90
- Oat, Wild plant response rating (oat, wild [20]; 500 g ai/ha): 90
- Oat, Wild plant response rating (oat, wild [20]; Test C, 125 g ai/ha): 70
- Plant response rating, Ryegrass, Italian (ryegrass, Italian [21]; [24]): 50
- Plant response rating, Ryegrass, Italian (ryegrass, Italian [21]; [25]): 90
- Barnyardgrass plant response rating (barnyardgrass [22]; 500 g ai/ha): 100
- Barnyardgrass plant response rating (barnyardgrass [22]; Test C, 125 g ai/ha): 90
- Plant response rating, Blackgrass (blackgrass [23]; [24]): 10
- Plant response rating, Blackgrass (blackgrass [23]; [25]): 90
